These results are taken from article PMC11845477, “Exploring the principles behind antibiotics with limited resistance” (Nature Communications, 2025).

Experiment [1] deals with P. aeruginosa ATCC BAA-3107 (SEN) and P. aeruginosa LESB58 (MDR). Kind of experiment: microbe, parasite or virus in culture. Format: cell-based, Pseudomonas aeruginosa. As to conditions: for MIC: across three biological replicates. The procedure:
(§1) This study focused on multiple bacterial strains, as follows. For the FoR and ALE experiments, 2 strains per species were chosen: E. coli ATCC 25922, K. pneumoniae ATCC 10031, A. baumannii ATCC 17978, and P. aeruginosa ATCC BAA-3107 as sensitive (SEN) strains, and E. coli NCTC13846, K. pneumoniae ATCC 700603, A. baumannii ATCC BAA-1605 and P. aeruginosa LESB58 as multi-drug resistant (MDR) strains. Functional metagenomic screens were performed with E. coli ATCC 25922 and K. pneumoniae ATCC 10031 strains. To determine the dose-kill properties of the different antibiotics, an E. coli strain (ATCC 25922) expressing a yellow fluorescent protein (pZS2R, YFP, CHL^R) and a red fluorescent protein (pZS2R, mCherry, CHL^R) was used.
(§2) Unless otherwise indicated, cation-adjusted Mueller-Hinton Broth 2 (MHB, Millipore) medium was used throughout the study, except for SCH79797 (SCH).
(§3) A robotic liquid handling system was used to automatically prepare a 11 to 16-step serial dilution in 384-well microtiter plates (Greiner). A final concentration of 5 × 10^5 bacterial cells per mL were inoculated into each well containing 60 µL MHB medium. Bacterial cultures were incubated at 37 °C with continuous shaking (Infors shaker, 900 rpm with 3 mm throw) for 18 hours (2 replicates from each). Cell growth was monitored by measuring the optical density (OD600 values, using Biotek Synergy microplate reader). MIC was defined as the antibiotic concentration of complete growth inhibition (i.e., OD600 < 0.05). Relative MIC was calculated as follows:1 relativeMIC=MICevolved/MICancestor

In experiment [2] the test system is E. coli ATCC 25922 (SEN) and E. coli NCTC13846 (MDR). The experiment can be described thus: microbe, parasite or virus in culture. The format is cell-based, Escherichia coli. As to conditions: for MIC: across three biological replicates. The protocol:
as §1, §2, §3

The next experiment has as its system E. coli BW25113-ΔacrB. The experiment can be described thus: AcrAB-TolC efflux deficiency screen, relative MIC. The format is cell-based, Escherichia coli. To be noted: ΔacrB vs wild-type. The procedure: Fig. 6 The impact of AcrAB-TolC activity on antibiotic susceptibility. E. coli strains with AcrAB-TolC depletion (BW25113-ΔacrB) and overexpression (BW25113: pUCacrAB) were treated with various antibiotics, and the level of resistance was determined as minimum inhibitory concentration (MIC) relative to a wild-type strain, presented on a logarithmic scale (log2). Each bar represents the mean resistance level (susceptibility, i.e., level of resistance < 0; and resistance, i.e., level of resistance > 0) to antibiotics induced by acrAB overexpression (blue bars; E. coli with a multicopy plasmid of the acrAB genes (pUCacrAB)) and acrB deletion (red bars; mutant E. coli with acrB gene deletion (ΔacrB)) compared to the wild-type. Data are presented as mean values of 3 biological replicates ± SD. […] Detailed information on antibiotic and bacterial strain abbreviations is provided in Supplementary Data 1. Source data are provided as a Source Data file. For information on mode of action groups, refer to Table 1.
For the efflux deficiency screen, the ΔacrB mutant of E. coli K12 BW25113[86] and its equivalent wild-type control strain with intact gene were utilized. In contrast, BW25113 carrying a multicopy acrAB plasmid (pUCacrAB)[87] and its control strain harboring an empty pUC118 plasmid were used to overexpress the acrAB efflux system. According to established protocols via P1 transduction, the suitable acrB deletion mutant (ΔacrB BW25113) was created, while the pUCacrAB plasmid was kindly provided by Kunihiko Nishino and Akihito Yamaguchi (Osaka University, Osaka, Japan). In a prior study, both strains were employed. Since the copy number of the plasmid carrying the efflux pump is controlled by native promoters, external induction is unnecessary.
Antibiotic susceptibilities of these strains were evaluated using a modified version of the standard broth dilution method. In 96-well microtiter plates containing fresh MHB medium, or supplemented MS medium in case of SCH79797, ten-step serial dilutions of an antibiotic from a stock solution were made (2 wells per antibiotic concentration per strain). The two wells contained only supplemented media without any antibiotics […]. Strains were incubated overnight at 37 °C with continuous agitation. Additionally, plasmid containing strains were grown in the presence of 100 µg/mL ampicillin. The culture was diluted to yield a cell suspension with 5 ×10^5 cells/mL and then inoculated into the wells of the microtiter plate. To determine the medium’s background OD value, the first column of the 96-well plate contained solely MHB without inoculum. Prior to the measurement, the plates were incubated at 37 °C with continuous shaking at 900 rpm with 3 mm throw. OD600 values were determined in a microplate reader after 18 hours of incubation (Biotek Synergy 2). The minimum inhibitory concentration (MIC) was determined as the lowest concentration of antibiotic at which the OD600 values were less than 0.05 after subtracting the background value. The log2 of the relative MIC was computed using the following equation:2 log2relativeMICpUCacrAB=MICpUCacrAB/MICpUC118 3 log2relativeMICΔacrB=MICΔacrB/MICwt

Experiment [3] concerns K. pneumoniae ATCC 10031 (SEN) and K. pneumoniae ATCC 700603 (MDR). Kind of experiment: microbe, parasite or virus in culture. Format: cell-based, Klebsiella pneumoniae. To be noted: for MIC: across three biological replicates. The protocol:
as §1, §2, §3

The mark [4] stands for this setting: Pseudomonas aeruginosa, ATCCBAA3107, Pseudomonas aeruginosa ATCC BAA-3107 (PA-SEN).
Setting [5] is: Pseudomonas aeruginosa, ATCCBAA3107, Pseudomonas aeruginosa LESB 58 (PA-MDR).
The mark [6] stands for this setting: Escherichia coli ATCC 25922 (EC-SEN), ancestor strain, sheet fig 2a.
The mark [7] stands for this setting: Escherichia coli, Escherichia coli ATCC 25922 (EC-SEN).
Setting [8] is: Escherichia coli, Escherichia coli NCTC 13846 (EC-MDR).
Setting [9] is: ancestor EC-SEN (Escherichia coli ATCC 25922).
[10] abbreviates: Klebsiella pneumoniae ATCC 10031 (KP-SEN), ancestor strain, sheet fig 2a.
[11] abbreviates: Klebsiella pneumoniae, Klebsiella pneumoniae ATCC 10031 (KP-SEN).
The mark [12] stands for this setting: Klebsiella pneumoniae, Klebsiella pneumoniae ATCC 700603 (KP-MDR).
The mark [13] stands for this setting: Klebsiella pneumoniae ATCC 10031 (KP-SEN), ancestor strain.
Setting [14] is: Klebsiella pneumoniae ATCC 700603 (KP-MDR), ancestor strain.
Where [15] appears, read: Klebsiella pneumoniae ATCC 700603 (KP-MDR), ancestor strain, sheet fig 2a.

For `C[C@@H]1CN2c3c(cc4c(N5C(=O)OC[C@@H]5C)noc4c3F)CC3(C(=O)NC(=O)NC3=O)[C@H]2[C@H](C)O1` [Zoliflodacin], the MIC was 8 µg/mL in experiment [1] (setting [4]); more than 32 µg/mL in experiment [1] (setting [5]); 2 µg/mL in experiment [2] (setting [7]); 16 µg/mL in experiment [2] (setting [8]); 0.125 µg/mL in experiment [3] (setting [11]); more than 32 µg/mL in experiment [3] (setting [12]). In addition, the MIC of ancestor stood at 2 µg/mL in experiment [2] (setting [6]); 2 µg/mL in experiment [2] (setting [9]); 0.125 µg/mL in experiment [3] (K. pneumoniae ATCC 10031 (KP-SEN), ancestor strain); 0.125 µg/mL in experiment [3] (setting [10]). For the same compound, the “Relative MIC (log2)” value with E. coli BW25113-ΔacrB (replicate 1), in the experiment with E. coli BW25113-ΔacrB (replicate 2) and in the experiment with E. coli BW25113-ΔacrB (replicate 3) was -4 throughout.

In the case of `CNC(C)C1CCC(N)C(OC2C(N)CC(N)C(OC3OCC(C)(O)C(NC)C3O)C2O)O1` (stereo not drawn) [Gentamicin], the MIC of ancestor came to 1 µg/mL in experiment [1] (P. aeruginosa ATCC BAA 3107 (PA-SEN), ancestor strain, sheet fig 2a); 1 µg/mL in experiment [1] (PA-SEN, Pseudomonas aeruginosa ATCC BAA 3107, ancestor strain); 1 µg/mL in experiment [2] (E. coli NCTC 13846 (EC-MDR), ancestor strain, sheet fig 2a); 1 µg/mL in experiment [2] (EC-MDR, Escherichia coli NCTC 13846, ancestor strain); 1 µg/mL in experiment [2] (EC-SEN, Escherichia coli ATCC 25922, ancestor strain); 1 µg/mL in experiment [2] (setting [6]). Also, the MIC of ancestor in experiment [3] (KP-SEN, Klebsiella pneumoniae ATCC 10031, ancestor strain) is 0.25 µg/mL; in experiment [3] (setting [10]) it was 0.25 µg/mL. In addition, the MIC in experiment [1] (setting [4]) is 1 µg/mL; in experiment [1] (setting [5]), more than 32 µg/mL; in experiment [2] (setting [7]), 1 µg/mL; in experiment [2] (setting [8]), 1 µg/mL; in experiment [3] (setting [11]) it was 0.25 µg/mL; in experiment [3] (setting [12]), 16 µg/mL. In addition, the “Relative MIC (log2)” value in the experiment on E. coli BW25113-ΔacrB (replicate 1), with E. coli BW25113-ΔacrB (replicate 2) and in the experiment with E. coli BW25113-ΔacrB (replicate 3) was 0 in each case.

For `CN(C)c1cc(CNCC(C)(C)C)c(O)c2c1C[C@H]1C[C@H]3[C@H](N(C)C)C(O)=C(C(N)=O)C(=O)[C@@]3(O)C(O)=C1C2=O` [Omadacycline], the MIC in experiment [1] (setting [4]) is more than 32 µg/mL; in experiment [1] (setting [5]), more than 32 µg/mL; in experiment [2] (setting [7]) it was 2 µg/mL; in experiment [2] (setting [8]), 16 µg/mL; in experiment [3] (setting [11]), 1 µg/mL; in experiment [3] (setting [12]), more than 32 µg/mL. Also, the MIC of ancestor in experiment [2] (Escherichia coli ATCC 25922 (EC-SEN), ancestor) was 2 µg/mL; in experiment [2] (setting [6]), 2 µg/mL; in experiment [3] (Klebsiella pneumoniae ATCC 10031 (KP-SEN), ancestor), 1 µg/mL; in experiment [3] (setting [10]), 1 µg/mL. Besides, the “Relative MIC (log2)” value in the experiment on E. coli BW25113-ΔacrB (replicate 1), in the experiment with E. coli BW25113-ΔacrB (replicate 2) and in the experiment with E. coli BW25113-ΔacrB (replicate 3) was -2.34 each time.

`CC(C)c1ccc(Cn2ccc3c4c(N)nc(NC5CC5)nc4ccc32)cc1` [SCH79797]: the MIC in experiment [1] (Pseudomonas aeruginosa ATCC BAA-3107 (PA-SEN)) was 32 µg/mL; in experiment [1] (Pseudomonas aeruginosa LESB 58 (PA-MDR)), more than 32 µg/mL; in experiment [2] (Escherichia coli ATCC 25922 (EC-SEN)), 4 µg/mL; in experiment [2] (Escherichia coli NCTC 13846 (EC-MDR)), 16 µg/mL; in experiment [3] (Klebsiella pneumoniae ATCC 10031 (KP-SEN)) it was 4 µg/mL; in experiment [3] (Klebsiella pneumoniae ATCC 700603 (KP-MDR)), 32 µg/mL. The MIC of ancestor in experiment [2] (E. coli ATCC 25922 (EC-SEN), ancestor strain, sheet fig 2a) was 4 µg/mL; in experiment [2] (setting [9]), 4 µg/mL; in experiment [3] (setting [10]), 4 µg/mL; in experiment [3] (ancestor KP-SEN (Klebsiella pneumoniae ATCC 10031)) it was 4 µg/mL. Further, the “Relative MIC (log2)” value in the experiment on E. coli BW25113-ΔacrB (replicate 1), in the experiment on E. coli BW25113-ΔacrB (replicate 2) and in the experiment with E. coli BW25113-ΔacrB (replicate 3) was -1 each time.

Consider `Nc1nc(-n2cc(C(=O)O)c(=O)c3cc(F)c(N4CC(O)C4)c(Cl)c32)c(F)cc1F` [Delafloxacin], for which the MIC of ancestor came out at 2 µg/mL in experiment [1] (P. aeruginosa LESB 58 (PA-MDR), ancestor strain, sheet fig 2a); 0.0156 µg/mL in experiment [1] (Pseudomonas aeruginosa ATCC BAA 3107 (PA-SEN), ancestor strain); 2 µg/mL in experiment [1] (Pseudomonas aeruginosa LESB 58 (PA-MDR), ancestor strain); 0.0312 µg/mL in experiment [2] (Escherichia coli ATCC 25922 (EC-SEN), ancestor strain); 0.0312 µg/mL in experiment [2] (setting [6]); 0.00195 µg/mL in experiment [3] (setting [13]). For the same compound, the MIC of ancestor turned out to be 0.00195 µg/mL in experiment [3] (setting [10]), 1 µg/mL in experiment [3] (setting [14]) and 1 µg/mL in experiment [3] (setting [15]). Also, the MIC in experiment [1] (setting [4]) is less than 0.0312 µg/mL; in experiment [1] (setting [5]), 2 µg/mL; in experiment [2] (setting [7]) it was 0.0312 µg/mL; in experiment [2] (setting [8]), 16 µg/mL; in experiment [3] (setting [11]) it was 0.00195 µg/mL; in experiment [3] (setting [12]), 1 µg/mL. For the same compound, the “Relative MIC (log2)” value in the experiment on E. coli BW25113-ΔacrB (replicate 1), with E. coli BW25113-ΔacrB (replicate 2) and with E. coli BW25113-ΔacrB (replicate 3) was -4 in each case.

In the case of `CN[C@@H]1[C@@H](O[C@H]2O[C@H](CO)[C@@H](N)[C@H](O)[C@H]2O)OC2C[C@@H](N)[C@@H](O[C@H]3[C@H](O)[C@@H](O)[C@H](N)C[C@@H]3N)OC2[C@@H]1O` (stereo partly drawn) [Apramycin], the MIC in experiment [1] (setting [4]) is 8 µg/mL; in experiment [1] (setting [5]) it was more than 32 µg/mL; in experiment [2] (setting [7]), 16 µg/mL; in experiment [2] (setting [8]), 8 µg/mL; in experiment [3] (setting [11]), 2 µg/mL; in experiment [3] (setting [12]), 4 µg/mL. Also, the “Relative MIC (log2)” value with E. coli BW25113-ΔacrB (replicate 1), in the experiment on E. coli BW25113-ΔacrB (replicate 2) and in the experiment with E. coli BW25113-ΔacrB (replicate 3) was 1 each time. In addition, the MIC of ancestor in experiment [3] (setting [13]) worked out at 2 µg/mL; in experiment [3] (setting [10]), 2 µg/mL; in experiment [3] (setting [14]), 4 µg/mL; in experiment [3] (setting [15]), 4 µg/mL.
